Entries after “also recorded” stand apart in the source; their conditions may differ.
Assays:
[1] = Free radical scavenging assay (DPPH)
Description: The test samples were prepared in 50% DMSO at 500 µM. Seventy microliters of DPPH solution (500 µM in methanol) was added to 96 well plate. The assay mixture was adjusted to 80 µL volume by methanol. After adjusting the volume, 20 µL of test compounds was added to each well. The reaction plate was incubated at room temperature in dark for 30 min. The absorbance was measured at 517 nm by using infinite 200 pro^TM, Tecan. Ascorbic acid was used as a positive control. Percent inhibition was calculated and compounds showing activity were evaluated for the IC50 values.

[2] = biological target: T1, β-Secretase (BACE1) (Homo sapiens, UniProt P56817); test: β-Secretase inhibition assay (fluorogenic substrate IV); format: biochemical; conditions: for inhibition at 25 µM: read-out: BACE1 % Inhibition (at 25 µM) (±SEM)
T1 construct: purchased Sino Biological
Description: β-Secretase enzyme was reconstituted with 50 mM Tris (pH 7.5), 10% glycerol to yield concentration of 0.5 unit/µL. The enzyme stock solution was diluted with 100 mM sodium acetate buffer (pH 4.5) to 0.01 unit/µL. Thirty microliters of enzyme solution were added to each well that contained 20 µL of 5% DMSO of test compound. Then, fifty microliters of 50 µM β-secretase substrate IV from Calbiochem were added to the reaction plate. […] The assays were run in triplicate.

[3] = biological target: T2, amyloid-β (1-42) peptide (Homo sapiens, UniProt P05067); test: Amyloid β aggregation assay (ThT fluorescence); format: biochemical; conditions: Aβ(1-42), read-out: Anti-Aβ aggregation IC50
T2 construct: Stock solution of amyloid-β (1-42) peptide (Anaspec; 1384 µM in 1% NH4OH); purchased Anaspec

[4] = Fe (II) chelation capacity assay (ferrozine)
Description: An aqueous solution of 0.2 mM ferrous sulphate was prepared. Fifty microliters of this solution was added to 96 well plate, then 40 µL of 500 µM of test compounds in 50% DMSO were added to each well followed by DI water to adjust the volume to 150 µL. The mixtures were incubated at room temperature for 10 min. After incubation, 50 µL of 1 mM ferrozine (Sigma) was added to the reaction mixture. The absorbance was measured at 562 nm by using infinite 200 pro^TM, Tecan. EDTA was used as a positive control. Chelation capacity of each compounds were calculated. Compounds having chelating capacity over than 50% were evaluated for stoichiometric ratio of compound: metal.

[5] = tested on: SH-SY5Y cells; test: Protection against Aβ1-42 induced neuronal cell death, MTT viability assay; format: cell-based; conditions: compound 1 μM
Description: The SH-SY5Y cells were cultured in a medium containing minimum essential medium (MEM): F-12 (1:1), 10% fetal bovine serum, MEM non-essential amino acids (0.5×), 0.5 mM sodium pyruvate and 100 units/ml of penicillin and 100 μg/mL of streptomycin. The cells were maintained under a humidified incubator with 5% CO2 in air at 37 °C.
SH-SY5Y cells were seeded in 96-well plates (2 × 10^4 cells per well) for 24 h. […] The aggregated β-amyloid was prepared by incubating in a medium without serum, penicillin and streptomycin at 37 °C for 72 h. The cells treated with aggregated β-amyloid were incubated for 24 h, 15 µL of MTT reagent (5 mg/mL MTT in serum free medium containing […]) was added to each well and incubated at 37 °C for 3 h. The medium was removed from each well. One hundred microlitres of 0.04 N HCl in isopropanol was added to each well to dissolve blue formazan crystals, which is the product of MTT catalyzed by mitochondrial dehydrogenase. The absorbance was measured at 570/630 nm using a Synergy^TM HT multi-detection microplate reader (Bio-Tek Instruments, Winooski, VT, USA).

[6] = biological target: T2, amyloid-β (1-42) peptide; test: Amyloid β aggregation assay (ThT fluorescence); format: biochemical; conditions: Aβ(1-42), 48 h, read-out: Anti-Aβ aggregation % Inhibition (at 100 µM) (±SEM)
Description: Nine microliters amyloid-β solution was added to a greiner transparent 96 well plate. One microliter of each test compounds (1,000 µM in DMSO) were added to each well and mixed gently by tapping. The final concentrations of each compound were 100 µM in 10% DMSO. The reaction plate was incubated in dark at 37 °C for 48 h. After incubation, 200 µL of 5 µM ThT (Sigma) in 50 mM Tris buffer (pH 7.4) was added to each well. The fluorescence was measured at Ex = 446 nm and Em = 490 nm by using SpectraMax Gemini EM^TM [30]. The assays were run in triplicate.

T1 sequence (P56817 46-501): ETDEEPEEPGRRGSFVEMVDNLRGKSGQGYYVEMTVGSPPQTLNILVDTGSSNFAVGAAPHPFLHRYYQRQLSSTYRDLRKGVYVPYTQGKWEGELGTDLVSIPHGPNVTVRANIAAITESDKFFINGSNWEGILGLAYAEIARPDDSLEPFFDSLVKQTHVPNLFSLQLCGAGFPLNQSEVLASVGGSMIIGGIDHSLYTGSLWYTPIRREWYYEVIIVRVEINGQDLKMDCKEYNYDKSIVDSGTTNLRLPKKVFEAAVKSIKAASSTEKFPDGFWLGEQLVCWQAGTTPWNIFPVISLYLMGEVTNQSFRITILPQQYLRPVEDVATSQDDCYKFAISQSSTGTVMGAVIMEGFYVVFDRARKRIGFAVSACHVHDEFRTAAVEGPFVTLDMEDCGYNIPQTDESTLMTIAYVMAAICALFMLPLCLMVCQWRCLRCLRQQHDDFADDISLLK
T2 sequence (P05067 672-713 limits assumed): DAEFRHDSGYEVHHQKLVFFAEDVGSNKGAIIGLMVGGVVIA

O=C(/C=C/c1ccc(O)c(O)c1)NCc1cn(C[C@@H]2Cc3c([nH]c4ccccc34)CN2)nn1 [Compound 6h, (S)-3-((4-(N-(((E)-(3,4-Dihydroxyphenyl)propenoyl)azyl)methyl)-1H-1,2,3-triazol-1-yl)methyl)-2,3,4,9-tetrahydro-1H-pyrido[3,4-b]indole]
IC50 [1]: 42.9 µM | DPPH % Inhibition (at 100 µM) (±SEM) [1]: 92.29 (±0.02) % | inhibition at 25 µM [2]: 21.7% | IC50 [3]: 29.9 µM | Fe chelation % Capacity (at 100 µM) (±SEM) [4]: 42.74 (±0.30) % | Protective effect against Aβ1-42 induced neuronal cell death (MTT viability) [5]: significantly greater than those of the potent single target compound, BACE1 inhibitor IV; also recorded: decrease cell death to a greater extent than BACE1 inhibitor IV; also recorded: better than that of single targeted ligands

N[C@@H](Cc1c[nH]c2ccccc12)Cn1cc(CNC(=O)c2cc(O)cc(O)c2)nn1 [Compound 12f, (S)-N-((1-(2-Amino-3-(1H-indol-3-yl)propyl)-1H-1,2,3-triazol-4-yl)methyl)-3,5-dihydroxybenzamide]
DPPH % Inhibition (at 100 µM) (±SEM) [1]: 1.32 (±0.78) % | melting point: 68 to 70 °C | inhibition at 100 µM [6]: 3.8% | inhibition at 25 µM [2]: 16.6% | Fe chelation % Capacity (at 100 µM) (±SEM) [4]: 13.06 (±0.16) %

N[C@@H](Cc1c[nH]c2ccccc12)Cn1cc(-c2ccc(Cl)c(Cl)c2)nn1 [Compound 12c, (S)-1-(4-(3,4-Dichlorophenyl)-1H-1,2,3-triazol-1-yl)-3-(1H-indol-3-yl)propan-2-amine]
inhibition at 100 µM [6]: > 50% | IC50 [2]: 20.7 µM | inhibition at 25 µM [2]: 61.5% | IC50 [3]: 83.2 µM | Protective effect against Aβ1-42 induced neuronal cell death (MTT viability) [5]: significantly greater than those of the potent single target compound, BACE1 inhibitor IV; also recorded: decrease cell death to a greater extent than BACE1 inhibitor IV; also recorded: better than that of single targeted ligands

C[C@@H](NC(=O)c1cc(C(=O)N[C@@H](Cc2ccccc2)[C@H](O)CNC2CC2)cc(N(C)S(C)(=O)=O)c1)c1ccccc1 [Inh IV, reference compound]
Protective effect against Aβ1-42 induced neuronal cell death (MTT viability) [5]: improved cell viability

COc1cc(/C=C/C(=O)NCc2cn(C[C@@H](N)Cc3c[nH]c4ccccc34)nn2)ccc1O [Compound 12g, (S,E)-N-((1-(2-Amino-3-(1H-indol-3-yl)propyl)-1H-1,2,3-triazol-4-yl)methyl)-3-(4-hydroxy-3-methoxyphenyl)acrylamide]
IC50 [1]: 130 µM | DPPH % Inhibition (at 100 µM) (±SEM) [1]: 40.79 (±0.31) % | melting point: 118 to 119 °C | inhibition at 100 µM [6]: 46.1% | inhibition at 25 µM [2]: 16.2% | IC50 [3]: 110 µM

COc1cc(/C=C/C(=O)NCc2cn(C[C@@H]3Cc4c([nH]c5ccccc45)CN3)nn2)ccc1O [Compound 6g, (S)-3-((4-(N-(((E)-(3-Methoxy-4-hydroxyphenyl)propenoyl)azyl)methyl)-1H-1,2,3-triazol-1-yl)-methyl)-2,3,4,9-tetrahydro-1H-pyrido[3,4-b]indole]
IC50 [1]: 106 µM | DPPH % Inhibition (at 100 µM) (±SEM) [1]: 47.03 (±0.12) % | inhibition at 100 µM [6]: > 50% | inhibition at 25 µM [2]: 21.1% | IC50 [3]: 82.9 µM | Fe chelation % Capacity (at 100 µM) (±SEM) [4]: 8.88 (±0.25) %

N[C@@H](Cc1c[nH]c2ccccc12)Cn1cc(CNC(=O)/C=C/c2ccc(O)c(O)c2)nn1 [Compound 12h, (S,E)-N-((1-(2-Amino-3-(1H-indol-3-yl)propyl)-1H-1,2,3-triazol-4-yl)methyl)-3-(3,4-dihydroxy-phenyl)acrylamide]
IC50 [1]: 92.7 µM | DPPH % Inhibition (at 100 µM) (±SEM) [1]: 50.58 (±0.17) % | inhibition at 25 µM [2]: 40% | IC50 [3]: 56.4 µM | Protective effect against Aβ1-42 induced neuronal cell death (MTT viability) [5]: significantly greater than those of the potent single target compound, BACE1 inhibitor IV; also recorded: decrease cell death to a greater extent than BACE1 inhibitor IV; also recorded: better than that of single targeted ligands

O=C(NCc1cn(C[C@@H]2Cc3c([nH]c4ccccc34)CN2)nn1)c1cc(O)cc(O)c1 [Compound 6f, (S)-3-((4-(((N-(3,5-Dihydroxy)benzoyl)azyl)methyl)-1H-1,2,3-triazol-1-yl)methyl)-2,3,4,9-tetrahydro-1H-pyrido[3,4-b]indole]
melting point: 180 to 182 °C | inhibition at 25 µM [2]: 21.3% | Fe chelation % Capacity (at 100 µM) (±SEM) [4]: 5.80 (±0.04) %
